Results on 81 molecules are retold here after ChEMBL document CHEMBL3045108, “Advanced QSRR models of toxicological screening of basic drugs in whole blood by UPLC-TOFMS” (Med Chem Res, 2012).

Structures are written as SMILES.

The data set deals with Blood. Put plainly: Drug level in Homo sapiens (human) whole blood assessed as retention time by UPLC-TOF-MS analysis.
As to `CCOC(=O)C1(c2ccccc2)CCN(CCC(C#N)(c2ccccc2)c2ccccc2)CC1` [DIPHENOXYLATE], the Retention_time stood at 6.56 min.
As to `COc1cc(CC(C)N)c(OC)cc1C` (stereo unspecified) [DOM], the Retention_time is listed as 4.67 min.
For the molecule `COc1cc2nc(N3CCN(C(=O)C4COc5ccccc5O4)CC3)nc(N)c2cc1OC` (stereo unspecified) [DOXAZOSIN], the Retention_time amounted to 5.43 min.
Take `CN(C)CCC=C1c2ccccc2COc2ccccc21` [DOXEPIN]: the Retention_time was found to be 5.59 min.
With `c1cc2c(c(N3CCNCC3)c1)OCCO2` [ELTOPRAZINE], the Retention_time amounted to 4.9 min.
For the molecule `CN[C@@H](C)[C@H](O)c1ccccc1` [EPHEDRINE], the Retention_time was 2.28 min.
With `Clc1ccc2c(c1)C(c1ccccc1)=NCc1nncn1-2` [ESTAZOLAM], the Retention_time was 5.95 min.
On to `CCOC(=O)C1=C(C)NC(C)=C(C(=O)OC)C1c1cccc(Cl)c1Cl` (stereo unspecified) [FELODIPINE], for which the Retention_time is 7.44 min.
The result for `O=C(NCC1CCCCN1)c1cc(OCC(F)(F)F)ccc1OCC(F)(F)F` (stereo unspecified) [FLECAINIDE] reads 5.58 min.
The result for `CCOC(=O)c1ncn2c1CN(C)C(=O)c1cc(F)ccc1-2` [FLUMAZENIL] reads 5.13 min; that for `CN1C(=O)CN=C(c2ccccc2F)c2cc([N+](=O)[O-])ccc21` [FLUNITRAZEPAM], 6.16 min; that for `CNCCC(Oc1ccc(C(F)(F)F)cc1)c1ccccc1` (stereo unspecified) [FLUOXETINE], 6.08 min.
With `CCN(CC)CCN1C(=O)CN=C(c2ccccc2F)c2cc(Cl)ccc21` [FLURAZEPAM], the Retention_time was determined as 5.53 min.
The result for `COCCCC/C(=N\OCCN)c1ccc(C(F)(F)F)cc1` [FLUVOXAMINE] reads 5.91 min.
Regarding `NCC1(CC(=O)O)CCCCC1` [GABAPENTIN], the Retention_time is listed as 2.41 min.
`O=C1CN=C(c2ccccc2)c2cc(Cl)ccc2N1CC(F)(F)F` [HALAZEPAM]: the Retention_time was 7.22 min.
For `O=C(CCCN1CCC(O)(c2ccc(Cl)cc2)CC1)c1ccc(F)cc1` [HALOPERIDOL], the Retention_time is on record as 5.57 min.
Under `COc1ccc2c3c1O[C@H]1C(=O)CC[C@H]4[C@@H](C2)N(C)CC[C@]314` [HYDROCODONE] stands 2.96 min; under `CN1CC[C@]23c4c5ccc(O)c4O[C@H]2C(=O)CC[C@H]3[C@H]1C5` [HYDROMORPHONE], 1.84 min.
Regarding `OCCOCCN1CCN(C(c2ccccc2)c2ccc(Cl)cc2)CC1` (stereo unspecified) [HYDROXYZINE], the Retention_time amounted to 5.91 min.
As to `CC[C@H]1C[C@@H]2C[C@H]3c4[nH]c5ccc(OC)cc5c4CCN(C2)[C@@H]13` [IBOGAINE], the Retention_time is 4.94 min.
`CN(C)CCCN1c2ccccc2CCc2ccccc21` [IMIPRAMINE]: the Retention_time is listed as 5.81 min.
Take `CC1Cc2ccccc2N1NC(=O)c1ccc(Cl)c(S(N)(=O)=O)c1` (stereo unspecified) [INDAPAMIDE]: the Retention_time worked out at 5.79 min.
Regarding `COC(=O)C1=C(C)NC(C)=C(C(=O)OC(C)C)C1c1cccc2nonc12` (stereo unspecified) [ISRADIPINE], the Retention_time was 7 min.
Take `CNC1(c2ccccc2Cl)CCCCC1=O` (stereo unspecified) [KETAMINE]: the Retention_time amounted to 3.57 min.
The result for `CCC(=O)C1(c2cccc(O)c2)CCN(C)CC1` [KETOBEMIDONE] reads 3.22 min; that for `CC(CCc1ccccc1)NCC(O)c1ccc(O)c(C(N)=O)c1` (stereo unspecified) [LABETALOL], 4.95 min; that for `Nc1nnc(-c2cccc(Cl)c2Cl)c(N)n1` [LAMOTRIGINE], 3.78 min.
Consider `COC(=O)C1=C(C)NC(C)=C(C(=O)OC(C)(C)CN(C)CCC(c2ccccc2)c2ccccc2)C1c1cccc([N+](=O)[O-])c1` (stereo unspecified) [LERCANIDIPINE], for which the Retention_time was 6.8 min.
In the case of `COc1ccc2c(c1)N(C[C@H](C)CN(C)C)c1ccccc1S2` [LEVOMEPROMAZINE], the Retention_time was found to be 5.98 min.
On to `CN1CC[C@]23CCCC[C@H]2[C@H]1Cc1ccc(O)cc13` [LEVORPHANOL], for which the Retention_time turned out to be 3.82 min.
The result for `CN(C)C(=O)C(CCN1CCC(O)(c2ccc(Cl)cc2)CC1)(c1ccccc1)c1ccccc1` [LOPERAMIDE] reads 6.37 min; that for `O=C1Nc2ccc(Cl)cc2C(c2ccccc2Cl)=NC1O` (stereo unspecified) [LORAZEPAM], 6.02 min.
Under `CN1C(=O)C(O)N=C(c2ccccc2Cl)c2cc(Cl)ccc21` (stereo unspecified) [LORMETAZEPAM] stands 6.41 min.
Under `CCCCc1nc(Cl)c(CO)n1Cc1ccc(-c2ccccc2-c2nn[nH]n2)cc1` [LOSARTAN] stands 6.09 min; under `CCN(CC)C(=O)[C@@H]1C=C2c3cccc4[nH]cc(c34)C[C@H]2N(C)C1` [LYSERGIDE], 4.88 min.
Consider `CN1CCN=C(c2ccccc2)c2cc(Cl)ccc21` [MEDAZEPAM], for which the Retention_time amounted to 5.45 min.
With `CCOC(=O)C1(c2ccccc2)CCN(C)CC1` [MEPERIDINE], the Retention_time amounted to 4.68 min.
Take `Cc1cccc(C)c1NC(=O)C1CCCCN1C` (stereo unspecified) [MEPIVACAINE]: the Retention_time is given as 3.46 min.
`COc1cc(CCN)cc(OC)c1OC` [MESCALINE]: the Retention_time is listed as 2.77 min.
Under `CCC(=O)C(CC(C)N(C)C)(c1ccccc1)c1ccccc1` (stereo unspecified) [METHADONE] stands 6.03 min.
As to `CN[C@@H](C)Cc1ccccc1` [METHAMPHETAMINE], the Retention_time amounted to 2.86 min.
For `Cc1ccccc1-n1c(C)nc2ccccc2c1=O` [METHAQUALONE], the Retention_time is given as 6.02 min.
`COC(=O)C(c1ccccc1)C1CCCCN1` (stereo unspecified) [METHYLPHENIDATE]: the Retention_time is 4.16 min.
With `CCN(CC)CCNC(=O)c1cc(Cl)c(N)cc1OC` [METOCLOPRAMIDE], the Retention_time was found to be 3.64 min.
Under `CN1CCN2c3ccccc3Cc3ccccc3C2C1` (stereo unspecified) [MIANSERIN] stands 5.48 min; under `Cc1ncc2n1-c1ccc(Cl)cc1C(c1ccccc1F)=NC2` [MIDAZOLAM], 5.45 min.
As to `CNC(C)Cc1ccc2c(c1)OCO2` (stereo unspecified) [MIDOMAFETAMINE], the Retention_time came out at 2.89 min.
Take `CN1CCN2c3ncccc3Cc3ccccc3C2C1` (stereo unspecified) [MIRTAZAPINE]: the Retention_time is 3.91 min.
Turning to `O=C(NCCN1CCOCC1)c1ccc(Cl)cc1` [MOCLOBEMIDE], the Retention_time is recorded as 3.39 min.
Under `C=CCN1CC[C@]23c4c5ccc(O)c4O[C@H]2C(=O)CC[C@@]3(O)[C@H]1C5` [NALOXONE] stands 2.46 min.
Regarding `COC(=O)C1=C(C)NC(C)=C(C(=O)OC)C1c1ccccc1[N+](=O)[O-]` [NIFEDIPINE], the Retention_time is recorded as 6.4 min.
Regarding `COCCOC(=O)C1=C(C)NC(C)=C(C(=O)OC(C)C)C1c1cccc([N+](=O)[O-])c1` (stereo unspecified) [NIMODIPINE], the Retention_time was 7.14 min.
For the molecule `O=C1CN=C(c2ccccc2)c2cc([N+](=O)[O-])ccc2N1` [NITRAZEPAM], the Retention_time amounted to 5.8 min.
Consider `O=C1CC(=O)N(c2ccccc2)c2cc(Cl)ccc2N1` [NOR-CLOBAZAM], for which the Retention_time is given as 5.61 min.
`NCCC(Oc1ccc(C(F)(F)F)cc1)c1ccccc1` (stereo unspecified) [NORFLUOXETINE]: the Retention_time is 6 min.
On to `CNCCC=C1c2ccccc2CCc2ccccc21` [NORTRIPTYLINE], for which the Retention_time was determined as 5.92 min.
As to `COc1ccc2c(c1OC)C(=O)O[C@@H]2[C@H]1c2c(cc3c(c2OC)OCO3)CCN1C` [NOSCAPINE], the Retention_time is 4.99 min.
For the molecule `Cc1ccccc1C(OCCN(C)C)c1ccccc1` (stereo unspecified) [ORPHENADRINE], the Retention_time came out at 5.75 min.
As for `NC(=O)N1c2ccccc2CC(=O)c2ccccc21` [OXCARBAZEPINE], the Retention_time is listed as 5.29 min.
In the case of `COc1ccc2c3c1O[C@H]1C(=O)CC[C@@]4(O)[C@@H](C2)N(C)CC[C@]314` [OXYCODONE], the Retention_time is recorded as 2.67 min.
Take `CN1CC[C@]23c4c5ccc(O)c4O[C@H]2C(=O)CC[C@@]3(O)[C@H]1C5` [OXYMORPHONE]: the Retention_time was found to be 1.78 min.
As for `COc1ccc(CC(C)N)cc1` (stereo unspecified) [PARA-METHOXYAMPHETAMINE], the Retention_time is 2.91 min.
With `Fc1ccc([C@@H]2CCNC[C@H]2COc2ccc3c(c2)OCO3)cc1` [PAROXETINE], the Retention_time is recorded as 5.66 min.
In the case of `O=C1CN=C(c2ccccc2Cl)c2cc(Br)ccc2N1` [PHENAZEPAM], the Retention_time was found to be 6.45 min.
Consider `c1ccc(C2(N3CCCCC3)CCCCC2)cc1` [PHENCYCLIDINE], for which the Retention_time turned out to be 5.23 min.
Turning to `CC(C)(N)Cc1ccccc1` [PHENTERMINE], the Retention_time was determined as 3.08 min.
For `O=c1[nH]c2ccccc2n1C1CCN(CCCC(c2ccc(F)cc2)c2ccc(F)cc2)CC1` [PIMOZIDE], the Retention_time is given as 6.28 min.
The result for `CC(C)NCC(O)COc1cccc2[nH]ccc12` (stereo unspecified) [PINDOLOL] reads 3 min; that for `O=C1CN=C(c2ccccc2)c2cc(Cl)ccc2N1CC1CC1` [PRAZEPAM], 7.25 min.
Take `OC(CCN1CCCC1)(c1ccccc1)C1CCCCC1` (stereo unspecified) [PROCYCLIDINE]: the Retention_time is reported as 5.78 min.
Take `CC(CN1c2ccccc2Sc2ccccc21)N(C)C` (stereo unspecified) [PROMETHAZINE]: the Retention_time amounted to 5.7 min.
As to `CCC(=O)O[C@](Cc1ccccc1)(c1ccccc1)[C@H](C)CN(C)C` [PROPOXYPHENE], the Retention_time was 5.98 min.
For the molecule `CC(C)NCC(O)COc1cccc2ccccc12` (stereo unspecified) [PROPRANOLOL], the Retention_time came out at 5.28 min.
`CN[C@@H](C)[C@@H](O)c1ccccc1` [PSEUDOEPHEDRINE]: the Retention_time was 2.28 min.
The result for `COc1ccc(CN(CCN(C)C)c2ccccn2)cc1` [PYRILAMINE] reads 4.57 min; that for `Fc1ccccc1C1=NCC(=S)N(CC(F)(F)F)c2ccc(Cl)cc21` [QUAZEPAM], 7.59 min; that for `OCCOCCN1CCN(C2=Nc3ccccc3Sc3ccccc32)CC1` [QUETIAPINE], 5.35 min.
In the case of `CCOc1ccccc1OC(c1ccccc1)C1CNCCO1` (stereo unspecified) [REBOXETINE], the Retention_time is 5.6 min.
In the case of `OCc1cc(C(O)CNCCCCCCOCCCCc2ccccc2)ccc1O` (stereo unspecified) [SALMETEROL], the Retention_time was determined as 6.14 min.
Consider `C#CCN(C)[C@H](C)Cc1ccccc1` [SELEGILINE], for which the Retention_time is given as 3.55 min.
